Measurements as given in the NIST ThermoML archive (doi:10.1021/je025630q).

Test: compressibility factor (dimensionless); xn = mol fraction of the nth substance listed
Details: Gas, Burnett expansion method

CF [fluoromethane] + O=C=O
Details	compressibility factor
323.15 K, 1023.9 kPa, x2 = 0.619	0.9523
323.15 K, 1109.6 kPa, x2 = 0.189	0.9349
323.15 K, 1394.9 kPa, x2 = 0.378	0.9259
323.15 K, 1451.1 kPa, x2 = 0.791	0.9369
323.15 K, 1495.6 kPa, x2 = 0.619	0.9293
323.15 K, 1606.1 kPa, x2 = 0.189	0.904
323.15 K, 2009.1 kPa, x2 = 0.378	0.8909
323.15 K, 2102.7 kPa, x2 = 0.791	0.907
323.15 K, 2158.3 kPa, x2 = 0.619	0.8959
323.15 K, 2286.6 kPa, x2 = 0.189	0.8598
323.15 K, 2838.8 kPa, x2 = 0.378	0.8409
323.15 K, 2997.8 kPa, x2 = 0.791	0.8639
323.15 K, 3058.6 kPa, x2 = 0.619	0.8482
323.15 K, 3176.6 kPa, x2 = 0.189	0.798
323.15 K, 3899.6 kPa, x2 = 0.378	0.7717
323.15 K, 4170 kPa, x2 = 0.791	0.8027
323.15 K, 4217.2 kPa, x2 = 0.619	0.7813
323.15 K, 4257.2 kPa, x2 = 0.189	0.7144
323.15 K, 5138.4 kPa, x2 = 0.378	0.6793
323.15 K, 5587.6 kPa, x2 = 0.619	0.6915
323.15 K, 5596 kPa, x2 = 0.791	0.7197
333.15 K, 120.3 kPa, x2 = 0.392	0.9924
333.15 K, 128.5 kPa, x2 = 0.793	0.9965
333.15 K, 130.5 kPa, x2 = 0.572	0.9947
333.15 K, 141.4 kPa, x2 = 0.219	0.9909
333.15 K, 179.8 kPa, x2 = 0.392	0.9911
333.15 K, 191.9 kPa, x2 = 0.793	0.9938
333.15 K, 194.8 kPa, x2 = 0.572	0.9922
333.15 K, 211.2 kPa, x2 = 0.219	0.9886
333.15 K, 268.3 kPa, x2 = 0.392	0.9879
333.15 K, 286.2 kPa, x2 = 0.793	0.9901
333.15 K, 290.4 kPa, x2 = 0.572	0.9884
333.15 K, 314.8 kPa, x2 = 0.219	0.9843
333.15 K, 399.3 kPa, x2 = 0.392	0.9824
333.15 K, 426 kPa, x2 = 0.793	0.9846
333.15 K, 432.2 kPa, x2 = 0.572	0.9824
333.15 K, 467.7 kPa, x2 = 0.219	0.977
333.15 K, 592.5 kPa, x2 = 0.392	0.9737
333.15 K, 632.5 kPa, x2 = 0.793	0.9765
333.15 K, 641.1 kPa, x2 = 0.572	0.9736
333.15 K, 692.1 kPa, x2 = 0.219	0.9657
333.15 K, 874.8 kPa, x2 = 0.392	0.9605
333.15 K, 935.3 kPa, x2 = 0.793	0.9647
333.15 K, 946.8 kPa, x2 = 0.572	0.9606
333.15 K, 1017.9 kPa, x2 = 0.219	0.9489
333.15 K, 1282.7 kPa, x2 = 0.392	0.9408
333.15 K, 1375.1 kPa, x2 = 0.793	0.9475
333.15 K, 1389.2 kPa, x2 = 0.572	0.9416
333.15 K, 1484.9 kPa, x2 = 0.219	0.9247
333.15 K, 1863.4 kPa, x2 = 0.392	0.913
333.15 K, 2004.2 kPa, x2 = 0.793	0.9226
333.15 K, 2018.3 kPa, x2 = 0.572	0.9138
333.15 K, 2137.2 kPa, x2 = 0.219	0.8891
333.15 K, 2666.7 kPa, x2 = 0.392	0.8729
333.15 K, 2882 kPa, x2 = 0.793	0.8863
333.15 K, 2888.7 kPa, x2 = 0.572	0.8738
333.15 K, 3016.4 kPa, x2 = 0.219	0.8383
333.15 K, 3728.6 kPa, x2 = 0.392	0.8154
333.15 K, 4045.3 kPa, x2 = 0.572	0.8174
333.15 K, 4063.7 kPa, x2 = 0.793	0.8348
333.15 K, 4136 kPa, x2 = 0.219	0.7679
333.15 K, 5046.6 kPa, x2 = 0.392	0.7372
333.15 K, 5488.2 kPa, x2 = 0.572	0.7409
333.15 K, 5565.8 kPa, x2 = 0.793	0.7639
343.15 K, 125.5 kPa, x2 = 0.402	0.9971
343.15 K, 125.6 kPa, x2 = 0.787	0.996
343.15 K, 128.3 kPa, x2 = 0.591	0.9967
343.15 K, 135.4 kPa, x2 = 0.18	0.9953
343.15 K, 187.3 kPa, x2 = 0.402	0.9939
343.15 K, 187.7 kPa, x2 = 0.787	0.9941
343.15 K, 191.6 kPa, x2 = 0.591	0.9938
343.15 K, 202 kPa, x2 = 0.18	0.9914
343.15 K, 279.1 kPa, x2 = 0.402	0.9895
343.15 K, 280.1 kPa, x2 = 0.787	0.9911
343.15 K, 285.7 kPa, x2 = 0.591	0.9901
343.15 K, 300.8 kPa, x2 = 0.18	0.9865
343.15 K, 415.1 kPa, x2 = 0.402	0.9834
343.15 K, 417.3 kPa, x2 = 0.787	0.9864
343.15 K, 425.2 kPa, x2 = 0.591	0.9845
343.15 K, 447 kPa, x2 = 0.18	0.9794
343.15 K, 615.9 kPa, x2 = 0.402	0.9747
343.15 K, 620.2 kPa, x2 = 0.787	0.9794
343.15 K, 631.2 kPa, x2 = 0.591	0.9764
343.15 K, 662 kPa, x2 = 0.18	0.969
343.15 K, 910 kPa, x2 = 0.402	0.962
343.15 K, 918.6 kPa, x2 = 0.787	0.9691
343.15 K, 933.5 kPa, x2 = 0.591	0.9646
343.15 K, 975.3 kPa, x2 = 0.18	0.9536
343.15 K, 1336.1 kPa, x2 = 0.402	0.9436
343.15 K, 1353.5 kPa, x2 = 0.787	0.9539
343.15 K, 1372.4 kPa, x2 = 0.591	0.9474
343.15 K, 1426.1 kPa, x2 = 0.18	0.9315
343.15 K, 1943.4 kPa, x2 = 0.402	0.9169
343.15 K, 1979.2 kPa, x2 = 0.787	0.9318
343.15 K, 1999.6 kPa, x2 = 0.591	0.9222
343.15 K, 2061.5 kPa, x2 = 0.18	0.8996
343.15 K, 2787.5 kPa, x2 = 0.402	0.8786
343.15 K, 2861 kPa, x2 = 0.787	0.8998
343.15 K, 2876.3 kPa, x2 = 0.591	0.8861
343.15 K, 2930.2 kPa, x2 = 0.18	0.8542
343.15 K, 3914.8 kPa, x2 = 0.402	0.8243
343.15 K, 4057.2 kPa, x2 = 0.591	0.835
343.15 K, 4064.7 kPa, x2 = 0.18	0.7916
343.15 K, 4064.8 kPa, x2 = 0.787	0.8541
343.15 K, 5337.5 kPa, x2 = 0.402	0.7508
343.15 K, 5565.1 kPa, x2 = 0.591	0.7652
343.15 K, 5631.7 kPa, x2 = 0.787	0.7905
